Experimental data taken from US11414450B1, “Aminoglycosides and uses thereof” (REVAGENIX, INC., priority 2017, dated 2022).
Values after ≈ are worked out from the molar mass of the structure shown.

What was measured:
Format in all cases: cell-based
[1] = test system: E. coli isogenic strain nmpA; assay: MIC broth microdilution, E. coli isogenic strain nmpA; details: for Geometric Mean MIC values, E. coli isogenic strains, nmpA: Table 2
Description: (§1) Minimum inhibitory concentrations for the example compounds herein are determined by the broth microdilution method in accordance with the Clinical and Laboratory Standards Institute (CLSI) guidelines. In brief, organism suspensions are adjusted to a 0.5 McFarland standard to yield a final inoculum between 3×10^5 and 7×10^5 colony-forming units (CFU)/mL. Compound dilutions and inocula are made in sterile, cation adjusted Mueller-Hinton Broth (Beckton Dickinson). The inoculum is prepared by suspension of a colony from an agar plate that is prepared the previous day. Bacteria are suspended in sterile saline and added to each assay plate to obtain a final concentration of 5×10^5 CFU/mL. An inoculum volume of 100 μL is added to wells containing 100 μL of broth with 2-fold serial dilutions of the compound. All inoculated microdilution trays are incubated in ambient air at 35° C. for 18-24 hours. Following incubation, the lowest concentration of the compound that prevents visible growth (OD 600 nm<0.05) is recorded as the MIC. […] Performance of the assay is monitored by the use of laboratory quality-control strains and a compound with a defined MIC spectrum (such as levofloxacin), in accordance with CLSI guidelines. Compounds are tested against multiple microbiologic panels. Panels include: 1) a multi-species primary screening panel that includes multiple defined AG-R mechanisms; 2) a panel of isogenic strains carrying different common mechanisms of AG-R that allows characterization of the SAR for AMEs, RMTs, and entry and efflux resistance mechanisms; and 3) panels of recent clinical isolates selected from Phase 3 studies and ongoing global surveillance.

[2] = test system: E. coli isogenic strain aph(3′)-Ia; assay: MIC broth microdilution, E. coli isogenic strain aph(3′)-Ia; details: for Geometric Mean MIC values, E. coli isogenic strains, aph(3′)-Ia: Table 2, aph(3′)-Ia has activity at both the 3′-hydroxy and 5″-hydroxy positions
Description: as §1

[3] = test system: E. coli isogenic strain aph(3′)-II; assay: MIC broth microdilution, E. coli isogenic strain aph(3′)-II; details: for Geometric Mean MIC values, E. coli isogenic strains, aph(3′)-II: Table 2
Description: as §1

[4] = test system: E. coli isogenic strain empty vector; assay: MIC broth microdilution, E. coli isogenic strain, empty vector; details: for Geometric Mean MIC values, E. coli isogenic strains, empty vector: Table 2
Description: as §1

E. coli ATCC 25922 = assay: Minimum inhibitory concentration (broth microdilution, CLSI), E. coli ATCC 25922; details: for Geometric Mean MIC values, E. coli ATCC 25922: Table 2
Description: as §1

[5] = test system: E. coli isogenic strain ant(4′)-Ia; assay: MIC broth microdilution, E. coli isogenic strain ant(4′)-Ia; details: for Geometric Mean MIC values, E. coli isogenic strains, ant(4′)-Ia: Table 2
Description: as §1

[6] = test system: E. coli Δefflux (tolC efflux pump knocked-out); assay: MIC broth microdilution, E. coli Δefflux strain (tolC knocked out)
Description: as §1

[7] = test system: E. coli isogenic strain aac(6′)-Ib; assay: MIC broth microdilution, E. coli isogenic strain aac(6′)-Ib; details: for Geometric Mean MIC values, E. coli isogenic strains, aac(6′)-Ib: Table 2
Description: as §1

E. coli efflux parent = assay: MIC broth microdilution, E. coli efflux parent strain; details: for Geometric Mean MIC values, E. coli efflux parent: Table 2
Description: as §1

[8] = test system: E. coli isogenic strain armA; assay: MIC broth microdilution, E. coli isogenic strain armA; details: for Geometric Mean MIC values, E. coli isogenic strains, armA: Table 2
Description: as §1

Compound | Geometric Mean MIC values, E. coli isogenic strains, nmpA [1] [µg/mL] | Geometric Mean MIC values, E. coli isogenic strains, aph(3′)-Ia [2] [µg/mL] | Geometric Mean MIC values, E. coli isogenic strains, aph(3′)-II [3] [µg/mL] | Geometric Mean MIC values, E. coli isogenic strains, empty vector [4] [µg/mL] | Geometric Mean MIC values, E. coli ATCC 25922 (E. coli ATCC 25922) [µg/mL] | Geometric Mean MIC values, E. coli isogenic strains, ant(4′)-Ia [5] [µg/mL] | Geometric Mean MIC values, E. coli Δefflux ([6]; Table 2) [µg/mL] | Geometric Mean MIC values, E. coli isogenic strains, aac(6′)-Ib [7] [µg/mL] | Geometric Mean MIC values, E. coli efflux parent (E. coli efflux parent) [µg/mL] | Geometric Mean MIC values, E. coli isogenic strains, armA [8] [µg/mL] | MIC ([1]; Escherichia coli, read-out: Geometric Mean MIC values, E. coli isogenic strains npmA) [µg/mL] | MIC ([2]; Escherichia coli, read-out: Geometric Mean MIC values, E. coli isogenic strains aph(3′)-Ia) [µg/mL] | MIC ([3]; Escherichia coli, read-out: Geometric Mean MIC values, E. coli isogenic strains aph(3′)-II) [µg/mL] | MIC ([4]; Escherichia coli, read-out: Geometric Mean MIC values, E. coli isogenic strains empty vector) [µg/mL] | MIC (E. coli ATCC 25922; Escherichia coli, ATCC25922, E. coli ATCC 25922, broth microdilution, read-out: Geometric Mean MIC values, E. coli ATCC 25922) [µg/mL] | MIC ([5]; Escherichia coli, read-out: Geometric Mean MIC values, E. coli isogenic strains ant(4′)-Ia) [µg/mL] | Geometric Mean MIC values, E. coli Δefflux ([6]; E. coli Δefflux) [µg/mL] | MIC ([7]; Escherichia coli, read-out: Geometric Mean MIC values, E. coli isogenic strains aac(6′)-Ib) [µg/mL] | MIC (E. coli efflux parent; Escherichia coli, E. coli efflux parent strain, read-out: Geometric Mean MIC values, E. coli efflux parent) [µg/mL] | MIC ([8]; Escherichia coli, read-out: Geometric Mean MIC values, E. coli isogenic strains armA) [µg/mL]
NCC1OC(OC2C(CO)OC(OC3C(O)C(N)CC(N)C3OC3OC(CN)C(O)C(F)C3O)C2O)C(N)C(O)C1O (centres unmarked) [drawing 867] | >64 | 64 | 1.4 | 2 | 2 | 64 | 1 | >64 | 1.4 | 2.8 |  |  |  |  |  |  |  |  |  | 
NCC1OC(OC2C(CO)OC(OC3C(O)C(N)CC(N)C3OC3OC(CN)C(O)C(F)C3N)C2O)C(N)C(O)C1O (centres unmarked) [drawing 868] | >64 | >64 | 8 | 16 | 16 | 32 | 4 | >64 | 8 | 64 |  |  |  |  |  |  |  |  |  | 
NCC1OC(OC2C(CO)OC(OC3C(O)C(N)CC(N)C3OC3OC(CN)C(O)C(F)C3N)C2O)C(N)C(O)C1O (centres unmarked) [drawing 869] | >64 | >64 | 1 | 1 | 1 | 1 | 1 | 4 | 1 | 4 |  |  |  |  |  |  |  |  |  | 
NCC1OC(OC2C(CO)OC(OC3C(O)C(N)CC(N)C3OC3OC(CN)C(O)C(F)(F)C3N)C2O)C(N)C(O)C1O (centres unmarked) [drawing 870] | >64 | >64 | 4 | 4 | 5 | 8 | 2 | >64 | 4 | 32 |  |  |  |  |  |  |  |  |  | 
NC[C@@H]1CC[C@@H](N)[C@@H](O[C@@H]2[C@@H](N)[C@H](O)[C@@H](N)[C@H](O)[C@H]2O[C@@H]2O[C@H](CO)[C@@H](O[C@H]3O[C@@H](CN)[C@@H](O)[C@H](O)[C@H]3N)[C@H]2O)O1 [drawing 888] |  |  |  |  |  |  |  |  |  |  | > 64 | > 64 | 0.5 (≈ 0.835 µM) | 0.5 (≈ 0.835 µM) | 1 (≈ 1.67 µM) | 0.5 (≈ 0.835 µM) | 0.5 | 16 (≈ 26.7 µM) | 0.5 (≈ 0.835 µM) | 4 (≈ 6.68 µM)
